# Measurements as given in patent publication US8952024B2, “Herbicidal pyrimidone derivatives” (E I du Pont de Nemours and Company, priority 2009, dated 2015).
# What was measured:
# Test in all cases: Test B pre-/postemergence plant response
# Assay type in all cases: in vivo
# [1] = system: goosegrass (Eleusine indica); settings: Preemergence, 62 g ai/ha; scale 0 to 100, 0 no effect, 100 complete control
# [2] = system: lambsquarters (Chenopodium album)
# How it was run: (§1)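 Visual ratings on a 0–100 scale (100 = complete control) were made versus untreated controls 13–15 days after treatment in a greenhouse. Compounds in surfactant-containing non-phytotoxic solvent were applied preemergence to seeds in loam–sand blend or postemergence to 1- to 4-leaf plants (2–18 cm).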
# [3] = system: sunflower (common oilseed sunflower, Helianthus annuus); settings: Preemergence; for Sunflower plant response rating: 125 g ai/ha
# How it was run: as §1
# kochia (Kochia scoparia) = system: kochia (Kochia scoparia)
# How it was run: as §1
# [4] = system: nightshade (eastern black nightshade, Solanum ptycanthum); settings: Preemergence; for Nightshade plant response rating: 125 g ai/ha
# How it was run: as §1
# [5] = system: cocklebur (Xanthium strumarium)
# How it was run: as §1
# [6] = system: woolly cupgrass (Eriochloa villosa)
# How it was run: as §1
# [7] = system: yellow nutsedge (Cyperus esculentus)
# How it was run: as §1
# [8] = system: Surinam grass (Brachiaria decumbens)
# How it was run: as §1
# wild oat (Avena fatua) = system: wild oat (Avena fatua)
# How it was run: as §1
# [9] = system: galium (catchweed bedstraw, Galium aparine); settings: Preemergence; for Galium plant response rating: 125 g ai/ha
# How it was run: as §1
# [10] = system: large crabgrass (Digitaria sanguinalis)
# How it was run: as §1
# [11] = 31 g ai/ha, postemergence, scale 0 to 100, 0 is no effect, 100 is complete control
# [12] = 250 g ai/ha, Preemergence, 0 to 100 scale
# [13] = Postemergence, 62 g ai/ha, scale 0 (no effect) to 100 (complete control), 13 to 15 days
# [14] = Postemergence, 125 g ai/ha, visual rating after 13 to 15 days, scale 0 (no effect) to 100 (complete control)
# [15] = Postemergence, 250 g ai/ha, scale 0 to 100 (0 no effect, 100 complete control)
# [16] = Preemergence, 31 g ai/ha, scale 0 to 100 (0 no effect, 100 complete control)
# [17] = Preemergence, 62 g ai/ha, scale 0 to 100, 0 no effect, 100 complete control
# [18] = Preemergence, 125 g ai/ha, 0 to 100 scale
# [19] = 31 g ai/ha, scale 0 to 100 (0 no effect, 100 complete control)
# [20] = 62 g ai/ha, scale 0 to 100, 0 no effect, 100 complete control
structure (smiles),measurement,setting,value
CCCn1c(-c2ccccc2)ncc(C(=O)C2=C(O)CCCC2=O)c1=O [Compound 50],"Plant response rating, Goosegrass",[1],98
same,"Plant response rating, Lambsquarters",[2]; [11],98
same,"Plant response rating, Lambsquarters",[2]; [12],100
same,"Plant response rating, Lambsquarters",[2]; [13],98
same,"Plant response rating, Lambsquarters",[2]; [14],100
same,"Plant response rating, Lambsquarters",[2]; [15],100
same,"Plant response rating, Lambsquarters",[2]; [16],100
same,"Plant response rating, Lambsquarters",[2]; [17],100
same,Lambsquarters plant response rating,[2]; [18],100
same,"Plant response rating, Sunflower","[3]; 250 g ai/ha, 0 to 100 scale",85
same,"Plant response rating, Sunflower",[3]; [19],55
same,Sunflower plant response rating,[3]; 0 to 100 scale,85
same,"Plant response rating, Kochia",kochia (Kochia scoparia); [11],95
same,"Plant response rating, Kochia",kochia (Kochia scoparia); [13],100
same,"Plant response rating, Kochia",kochia (Kochia scoparia); [14],100
same,"Plant response rating, Kochia",kochia (Kochia scoparia); [15],100
same,"Plant response rating, Nightshade","[4]; 250 g ai/ha, 0 to 100 scale",100
same,"Plant response rating, Nightshade",[4]; [19],100
same,"Plant response rating, Nightshade",[4]; [20],100
same,Nightshade plant response rating,[4]; 0 to 100 scale,100
same,"Plant response rating, Cocklebur",[5]; [11],85
same,"Plant response rating, Cocklebur",[5]; [13],85
same,"Plant response rating, Cocklebur",[5]; [14],90
same,"Plant response rating, Cocklebur",[5]; [15],90
same,"Plant response rating, Cocklebur",[5]; [17],75
same,Cocklebur plant response rating,[5]; [18],75
same,"Plant response rating, Cupgrass, Woolly",[6]; [11],70
same,"Plant response rating, Cupgrass, Woolly",[6]; [12],70
same,"Plant response rating, Cupgrass, Woolly",[6]; [13],75
same,"Plant response rating, Cupgrass, Woolly",[6]; [14],80
same,"Plant response rating, Cupgrass, Woolly",[6]; [15],85
same,"Plant response rating, Cupgrass, Woolly",[6]; [16],0
same,"Plant response rating, Cupgrass, Woolly",[6]; [17],5
same,"Cupgrass, Woolly plant response rating",[6]; [18],15
same,"Plant response rating, Nutsedge, Yellow",[7]; [11],70
same,"Plant response rating, Nutsedge, Yellow",[7]; [12],90
same,"Plant response rating, Nutsedge, Yellow",[7]; [13],70
same,"Plant response rating, Nutsedge, Yellow",[7]; [14],70
same,"Plant response rating, Nutsedge, Yellow",[7]; [15],75
same,"Plant response rating, Nutsedge, Yellow",[7]; [16],80
same,"Nutsedge, Yellow plant response rating",[7]; [18],90
same,"Plant response rating, Surinam Grass",[8]; [11],65
same,"Plant response rating, Surinam Grass",[8]; [12],100
same,"Plant response rating, Surinam Grass",[8]; [13],75
same,"Plant response rating, Surinam Grass",[8]; [14],80
same,"Plant response rating, Surinam Grass",[8]; [15],85
same,"Plant response rating, Surinam Grass",[8]; [16],75
same,Surinam Grass plant response rating,[8]; [18],98
same,"Plant response rating, Oat, Wild",wild oat (Avena fatua); [11],5
same,"Plant response rating, Oat, Wild",wild oat (Avena fatua); [12],0
same,"Plant response rating, Oat, Wild",wild oat (Avena fatua); [13],5
same,"Plant response rating, Oat, Wild",wild oat (Avena fatua); [14],10
same,"Plant response rating, Oat, Wild",wild oat (Avena fatua); [15],30
same,"Plant response rating, Oat, Wild",wild oat (Avena fatua); [16],0
same,"Oat, Wild plant response rating",wild oat (Avena fatua); [18],0
same,"Plant response rating, Galium","[9]; 250 g ai/ha, 0 to 100 scale",98
same,"Plant response rating, Galium",[9]; [19],70
same,"Plant response rating, Galium",[9]; [20],95
same,Galium plant response rating,[9]; 0 to 100 scale,95
same,"Plant response rating, Crabgrass, Large",[10]; [11],75
same,"Plant response rating, Crabgrass, Large",[10]; [12],100
same,"Plant response rating, Crabgrass, Large",[10]; [13],85
same,"Plant response rating, Crabgrass, Large",[10]; [14],95
same,"Plant response rating, Crabgrass, Large",[10]; [15],98
same,"Plant response rating, Crabgrass, Large",[10]; [16],98
same,"Plant response rating, Crabgrass, Large",[10]; [17],100
same,"Crabgrass, Large plant response rating",[10]; [18],100
Cc1ccc(F)c(-n2c(-c3ccccc3)ncc(C(=O)C3=C(O)CCCC3=O)c2=O)c1 [Compound 51],"Plant response rating, Goosegrass",[1],100
same,"Plant response rating, Lambsquarters",[2]; [11],75
same,"Plant response rating, Lambsquarters",[2]; [12],98
same,"Plant response rating, Lambsquarters",[2]; [13],90
same,"Plant response rating, Lambsquarters",[2]; [14],95
same,"Plant response rating, Lambsquarters",[2]; [15],98
same,"Plant response rating, Lambsquarters",[2]; [16],95
same,"Plant response rating, Lambsquarters",[2]; [17],98
same,Lambsquarters plant response rating,[2]; [18],98
same,"Plant response rating, Sunflower","[3]; 250 g ai/ha, 0 to 100 scale",75
same,"Plant response rating, Sunflower",[3]; [19],20
same,Sunflower plant response rating,[3]; 0 to 100 scale,75
same,"Plant response rating, Kochia",kochia (Kochia scoparia); [11],20
same,"Plant response rating, Kochia",kochia (Kochia scoparia); [13],20
same,"Plant response rating, Kochia",kochia (Kochia scoparia); [14],25
same,"Plant response rating, Kochia",kochia (Kochia scoparia); [15],35
same,"Plant response rating, Nightshade","[4]; 250 g ai/ha, 0 to 100 scale",100
same,"Plant response rating, Nightshade",[4]; [19],98
same,"Plant response rating, Nightshade",[4]; [20],98
same,Nightshade plant response rating,[4]; 0 to 100 scale,98
same,"Plant response rating, Cocklebur",[5]; [11],85
same,"Plant response rating, Cocklebur",[5]; [12],75
same,"Plant response rating, Cocklebur",[5]; [13],85
same,"Plant response rating, Cocklebur",[5]; [14],90
same,"Plant response rating, Cocklebur",[5]; [15],90
same,"Plant response rating, Cocklebur",[5]; [16],0
same,"Plant response rating, Cocklebur",[5]; [17],0
same,Cocklebur plant response rating,[5]; [18],20
same,"Plant response rating, Cupgrass, Woolly",[6]; [11],75
same,"Plant response rating, Cupgrass, Woolly",[6]; [12],85
same,"Plant response rating, Cupgrass, Woolly",[6]; [13],75
same,"Plant response rating, Cupgrass, Woolly",[6]; [14],80
same,"Plant response rating, Cupgrass, Woolly",[6]; [15],90
same,"Plant response rating, Cupgrass, Woolly",[6]; [16],10
same,"Plant response rating, Cupgrass, Woolly",[6]; [17],35
same,"Cupgrass, Woolly plant response rating",[6]; [18],75
same,"Plant response rating, Nutsedge, Yellow",[7]; [11],60
same,"Plant response rating, Nutsedge, Yellow",[7]; [12],90
same,"Plant response rating, Nutsedge, Yellow",[7]; [13],65
same,"Plant response rating, Nutsedge, Yellow",[7]; [14],75
same,"Plant response rating, Nutsedge, Yellow",[7]; [15],80
same,"Plant response rating, Nutsedge, Yellow",[7]; [16],55
same,"Nutsedge, Yellow plant response rating",[7]; [18],85
same,"Plant response rating, Surinam Grass",[8]; [11],80
same,"Plant response rating, Surinam Grass",[8]; [12],100
same,"Plant response rating, Surinam Grass",[8]; [13],85
same,"Plant response rating, Surinam Grass",[8]; [14],90
same,"Plant response rating, Surinam Grass",[8]; [15],90
same,"Plant response rating, Surinam Grass",[8]; [16],95
same,Surinam Grass plant response rating,[8]; [18],98
same,"Plant response rating, Oat, Wild",wild oat (Avena fatua); [11],60
same,"Plant response rating, Oat, Wild",wild oat (Avena fatua); [12],0
same,"Plant response rating, Oat, Wild",wild oat (Avena fatua); [13],60
same,"Plant response rating, Oat, Wild",wild oat (Avena fatua); [14],60
same,"Plant response rating, Oat, Wild",wild oat (Avena fatua); [15],90
same,"Plant response rating, Oat, Wild",wild oat (Avena fatua); [16],0
same,"Oat, Wild plant response rating",wild oat (Avena fatua); [18],0
same,"Plant response rating, Galium","[9]; 250 g ai/ha, 0 to 100 scale",95
same,"Plant response rating, Galium",[9]; [19],0
same,"Plant response rating, Galium",[9]; [20],75
same,Galium plant response rating,[9]; 0 to 100 scale,80
same,"Plant response rating, Crabgrass, Large",[10]; [11],80
same,"Plant response rating, Crabgrass, Large",[10]; [12],100
same,"Plant response rating, Crabgrass, Large",[10]; [13],85
same,"Plant response rating, Crabgrass, Large",[10]; [14],85
same,"Plant response rating, Crabgrass, Large",[10]; [15],90
same,"Plant response rating, Crabgrass, Large",[10]; [16],75
same,"Plant response rating, Crabgrass, Large",[10]; [17],98
same,"Crabgrass, Large plant response rating",[10]; [18],100
